Series [1] deals with angiotensin II (AII)-induced AAA. As to the kind of experiment: AII-induced AAA mouse model, post-treatment. Type of series: in vivo. The source says: To determine if senescence is a major cause of aneurysm development, the association between senescence and aneurysms using the angiotensin II (AII)-induced AAA model was investigated. Mice were infused AII for four weeks using osmotic mini-pump implantation into Apoe^−/− transgenic mouse.
To investigate the therapeutic potential of ketotherapy for abdominal aortic aneurysm (AAA), Ketogenic-diet (KD) and Ketone-ester (KE) were provided to angiotensin II (AII)-induced mouse model of AAA (FIG. 6). […] After completing AII infusion, the mice were post-treated with KD and KE for two to four weeks.
To investigate the time-dependent reduction of aorta diameter, the inner diameter of the aorta using ultrasound analysis was measured.

The subject of series [2] is senescent SMCs. The series is described as follows: Cellular viability (cytotoxicity) assay of senescent and normal SMCs. Type of series: cell-based. The following applies: premature senescence by H2O2, Arsenite or Nutlin 3a, FIG. 2A. As for the experimental part:
(§1) FIGS. 2A-2L. (a) Cytotoxicity assay of normal smooth muscle cells (NS) and senescent smooth muscle cells (SMCs). Replicative senescent SMCs (RS) and premature senescent SMCs, stimulated by H2O2 (HP), arsenic (Ars), and Nutlin 3a (Nut) treatment were treated with βHB, s-βHB, and ABT-737. (b) Flow cytometry analysis of apoptosis by βHB or s-βHB in radiation (10 Gy)-induced senescent SMC. (c) Quantitation of apoptotic cell and senescent cell after treating βHB and s-βHB in radiation-induced senescent SMC. (d) Representative aorta image of AII-infused mice with post-treatment of ABT-737, βHB and s-βHB. (e) External diameter of abdominal aorta infused with AII and post-treated with ABT-737 βHB and s-βHB. (f) SA-βGal activity assay of the whole aorta infused with AII, and post-treated with ABT-737, KD, or KE. (g) Quantitation of senescent area on aorta of AII-infused mice, and post-treated with KD, KE and ABT-737. (h) TUNEL assay on the abdominal aorta of AII infused mice, and treated with ABT-737, βHB, or s-βHB. SM-α Actin (SMA) and DAPI are co-stained after TUNEL reaction. […]
The clearance of senescent cells that accumulate during the aneurysm development is required to reduce the volume of aneurysm plaque. Thus, the senotherapeutic potential of βHB to reverse AAA progression was evaluated. […]

For series [3], the system named is senescent SMCs. As to the kind of experiment: Flow cytometry (FACS) apoptosis analysis, PI and Annexin V. Type of series: cell-based. The following applies: FIGS. 2B, 2C. The method, then:
as §1, with “reaction. (i) Caspase 3 activity assay on normal SMCs (NC) treated with βHB, or s-βHB, and ABT-737 comparing to normal cells pretreated with Nutlin-3a. (j) Caspase 3 activity assay on senescent SMCs (SNC) treated with βHB, or s-βHB, and ABT-737 compared to senescent cells pretreated with pifithrin-α.” for “reaction.”
Background: In flow cytometry, cells or beads pass a laser one at a time.

The conditions of series [4]: in vivo. The source says: We established an in vivo tolerance test of βHB and s-βHB (FIGS. 9A and 9B). […] The reduction of the inner diameter of the aortic wall is also dramatic in the treatment of s-βHB in FIG. 9F (Two-way ANOVA, ^###P<0.005, n=10).
Series [5] concerns CaCl2-induced AAA. As to the kind of experiment: CaCl2-induced AAA animal model, post-treatment. Type of series: in vivo, mouse. The method, then: FIGS. 5A-5J. (a) Representative image of aorta which developed CaCl2)-induced AAA, and post-treated with KD, KE, βHB, s-βHB, or ABT-737. KD is provided to mice for 4 weeks, KE is administrated with drinking water, βHB, s-βHB or ABT-737 are IP injected for 2 weeks with 48h intervals. (b) Incidence of AAA by CaCl2) treatment and proportion of mice recovered from the AAA after post-treatment of KD, KE, βHB and s-βHB for 2 weeks. (c) Time-dependent observation of inner diameter after CaCl2) treatment and post-treatment of KD or KE (28˜56 days after surgery). (d) Comparison of ultrasound images of CaCl2)-induced AAA to the identical aorta post-treated with βHB for 2 weeks. (e) H&E staining of aorta from the mice developed with CaCl2)-induced AAA, and post-treated with KD, KE, βHB, and s-βHB. (f) SA β-Gal activity assay on aorta which developed CaCl2)-induced AAA, and post-treated with KD, KE, βHB, s-βHB, or ABT-737. (g) Quantitation of senescent area on aorta developed with CaCl2)-induced AAA, and post-treated with KD, KE, βHB, s-βHB. (h) Verhoeff Van Gieson/EVG staining of abdominal aorta developed with CaCl2)-induced AAA, post-treated with KD, KE, βHB and s-βHB. (i) Average number of elastic fibers on abdominal aorta presented at FIG. 5H. (j) Measurement of Pulse Wave Velocity (PWV) on CaCl2)-infused mice with post-treatment of KD, KE, βHB, and s-βHB.
To confirm the possibility that the therapeutic effect of βHB on AAA is not only applied to AII-induced AAA, the CaCl2)-induced AAA animal model was also examined as well (FIG. 5A).
To further validate the therapeutic efficacy of s-βHB on aneurysms, we used a CaCl2-induced AAA animal model as well as an angiotensin II infusion model. […] Two-way ANOVA, s-βHB vs βHB, #P<0.01, n=10. Since the elimination of senescent SMCs is critical for the recovery of AAA, we investigated that s-βHB is also effective to remove senescent cells in CaCl2)-induced aneurysms. […] Student's T-test for s-βHB vs βHB, ^#P<0.05, n=8.

In series [6] the test system is Oct4 overexpressed senescent SMCs. The series is described as follows: Oct4 overexpressed senescent SMCs (SA β-Gal, Western blot). As to conditions: Oct4 overexpression by CRISPR-dCas9-VP64, FIG. 14A. It counts as cell-based. From the text: FIGS. 14A-14B show (a) SA β-Gal activity on Oct4 overexpressed SMCs with or without βHB treatment (2 days). Irradiated SMCs were infected by Lentivirus containing Crispr-dCas9-VP64_Oct4 plasmid prior to treating βHB. The arrow indicates localized senescent cell mass. (b) Western blot analysis after lentivirus (Crispr-dCas9-VP64_Oct4) infection into senescent SMCs without βHB treatment for 1 day or 2 days.
We proposed that Oct4 upregulation in senescence forms senescent spheroid-like cell mass and asymmetric configuration of aneurysms. To validate our central hypothesis, we overexpressed Oct4 in senescent SMCs using the CRISPR-dCas9-VP64 system to determine the role of Oct4. […] Localized increase of senescence may be highly associated with asymmetric dilation of aneurysms. […] We supposed that βHB prevents or reverses Oct4-induced senescence of SMCs, consequently reducing the size of aneurysms. To investigate the role of βHB in aneurysms, we assess the possibility of cellular reprogramming in senescent SMCs in the condition of Oct4 overexpression. […] In particular, a moderate increase of FAP (Fibroblast Activation Protein) provides a potential for reprogramming resulting in transdifferentiation of SMCs to myofibroblast. Recovered SM22 expression in Oct4 overexpressed senescent SMCs supposed that βHB converts the Oct4 function in dedifferentiation into a reprogramming-related role. We considered an βHB-induced epigenetic alteration of senescent cells contributing to Oct4-dependent cellular reprogramming based on this unique observation.
Background: In western blotting, separated proteins are transferred to a membrane and probed.

For series [7], the system named is angiotensin II (AII)-induced AAA. As to the kind of experiment: AII-induced AAA mouse model, post-treatment. As to conditions: injection every other day for two weeks, FIG. 2E. Type of series: in vivo.
For series [8], the system named is CaCl2-induced AAA. As to the kind of experiment: CaCl2-induced AAA animal model, post-treatment. Type of series: in vivo, mouse. As to conditions: n=10, FIG. 5C.

The structures appear in SMILES notation. Entries after “also recorded” stand apart in the source; their conditions may differ.

On to `C[C@H](O)CC(=O)O` [s-βHB, (S)-3-hydroxybutyrate], for which the “TUNEL assay, apoptosis of senescent plaque in the aneurysm” value in series [1] (FIG. 2H) is given as “induced targeted apoptosis of senescent plaque”. In series [1] (FIG. 9G), the lesion area result is recorded as “relatively more effective than βHB”. Besides, the “body weight and lipids levels” value in series [1] (FIGS. 9H-9J) was “no significant alteration”. Also, the “recovery rate of aneurysms” value in series [1] (compared to βHB) was “significant improvement in the recovery rate of aneurysms compared to the βHB treatment”. Further, the “AAA rate after post-treating” value in series [1] (incidence of AAA by angiotensin II infusion 67%, n=10, FIG. 9D) was 27%. In series [1] (n=10, FIG. 9F), the “reduction of the inner diameter of the aortic wall” value is “dramatic”. The “number of senescent SMCs versus normal SMCs” value in series [2] was “selectively reduced the number of senescent SMCs and not normal SMCs; also recorded: significantly reduced”. For the same compound, in series [3], the “apoptosis of senescent SMCs” value is “more effectively than βHB”. Besides, in series [4], the half-life (commonly how long it takes for the measured level to halve) was 2 h. The “recovery from CaCl2-induced AAA” value in series [5] (FIGS. 5A and 5B) is “effectively reversed aneurysms”. Moreover, the “senescent cells, SA β-gal assay” value in series [5] (FIGS. 5F and 5G) is “significantly reduced senescent cells”. Further, the “localized senescence, SA β-Gal activity” value in series [6] is reported as “significantly reverses or prevents the development of localized senescence”. In series [7], the “external diameter of the abdominal aorta” value is on record as “significantly reduced; also recorded: strongly reduced”. In series [8], the “time-dependent reduction of the external diameter of the aortic wall” value is “more effective than βHB”.

The values are drawn from patent publication US20240342121A1, “THE USE OF BETA-HYDROXYBUTYRATES FOR THE TREATMENT OR PREVENTION OF ANEURYSMS AND DISSECTIONS” (priority 2021, published 2024).
